# Assay results reported in patent publication US20100143319A1, “KIWIFRUIT COMPOSITIONS” (priority 2007, published 2010).
# Key:
# [1] = tested on: mouse small intestine motility; assay: First animal trial: small intestine motility experiment (Peristaltic Inhibition Model, diphenoxylate 0.25 g/l); type: in vivo, Kunmin male mice; details: model control: 0.25 g/l diphenoxylate oral, 20 ml/kg BW; mean ± SD, n=10; P<0.01 vs negative control
# From the text: Experimental animals: 100 Kunmin male mice (class two) were purchased from the animal center in the Academy of Military Medical Sciences of the Chinese PLA, with a weight of 16 to 18 g. • Group 1: 50 mice were randomly divided into 5 experimental groups each of 10 mice (negative control group, model control group and three dosage groups), to test small intestine motility. • Group 2: 50 mice were randomly divided into 5 experimental groups each of 10 mice (negative control group, model control group and three dosage groups), to measure the following parameters: time of first melena defecation, the number of faeces pellets, the weight of faeces, and to observe the shape of the faeces. […]
# For this experiment, the dosage was set at 10 times that of the recommended dosage, namely 0.29 g/kgBW per day (4 capsules). […] Oral intubation was used to administer the dose to the mice, at a measured quantity of 20 ml/kgBW.
# 8 days after oral administration of the different treatments, each group was fasted for 16 hours (with free access to drinking water). Mice in the Peristaltic Inhibition Model control group and the three dose groups were orally administered 0.25 g/l, diphenoxylate at a measured quantity of 20 ml/kg BW. […] The 0 g/kg BW group (negative control group and model control group) were orally administered blank inks with a measured quantity of 20 ml/kg BW. […]
# [2] = tested on: mouse Constipation Model; assay: First animal trial: constipation experiment (Constipation Model, diphenoxylate 0.50 g/l); type: in vivo, Kunmin male mice; details: mean ± SD, n=10
# From the text: Experimental animals: 100 Kunmin male mice (class two) were purchased from the animal center in the Academy of Military Medical Sciences of the Chinese PLA, with a weight of 16 to 18 g. • Group 1: 50 mice were randomly divided into 5 experimental groups each of 10 mice (negative control group, model control group and three dosage groups), to test small intestine motility. • Group 2: 50 mice were randomly divided into 5 experimental groups each of 10 mice (negative control group, model control group and three dosage groups), to measure the following parameters: time of first melena defecation, the number of faeces pellets, the weight of faeces, and to observe the shape of the faeces. Number of qualitative qualification is SCXK M 2002-001.
# For this experiment, the dosage was set at 10 times that of the recommended dosage, namely 0.29 g/kgBW per day (4 capsules). The experiment was designed with a low dosage group (0.145 g/kgBW) (2 capsules) and a high dosage group (0.87 g/kgBW) (12 capsules). The kiwifruit extract was dissolved by gentle agitation into sterile distilled water. For both the negative control group (0 g/kgBW) and the model control group sterile distilled water was used as the treatment. Oral intubation was used to administer the dose to the mice, at a measured quantity of 20 ml/kgBW.
# Parameters measured in the animal trial were time of defecation, the number of faeces pellets, the weight of the faeces, and visual observation of the shape of the faeces
# The different doses of kiwifruit composition were orally administered to the mice, and the shape of the faeces during the eight day feeding trial was observed. […] The mice in the Peristaltic Inhibition Model control group and the three dose groups were orally administered 0.50 g/l of diphenoxylate in the calculated volume of 20 ml/kg BW, whilst the negative group were given an equivalent volume of water. […] The time of the first melena defecation was recorded, along with the number of faecal pellets within 5 hours and the weight of the faeces, as well as the shape of the faeces.
# [3] = model control: 0.50 g/l diphenoxylate oral, 20 ml/kg BW, P 0.000 vs negative control
smiles,measurement,setting,value
"CCOC(=O)C1(c2ccccc2)CCN(CCC(C#N)(c2ccccc2)c2ccccc2)CC1 [diphenoxylate, Diphenoxylate]",Ink Progression (%),[1],33.8 ± 7.0 %
same,Number of faeces pellets defecated within 5 hours (grain),[2]; [3],25 ± 16 grain
same,Weight of faeces defecated within 5 hours,[2]; [3],0.47 ± 0.26 grain
same,Time of first melena defecation,"[2]; model control: diphenoxylate oral, 20 ml/kg BW (0.50 g/l, 0.25 g/L elsewhere in the source), P<0.01 vs negative control",231.7 ± 81.7 min
